Test results: PMC4457528, “Identification of Novel Small Molecule Inhibitors of Oncogenic RET Kinase” (PLoS ONE, 2015)

Experiments:
Ba/F3-RET/PTC3 cells = assay: Growth curves, Ba/F3 cells expressing RET/PTC3; conditions: Ba/F3 RET/PTC3, without IL-3
Procedure: Fibroblasts were kept in medium supplemented with 5% fetal calf serum. Human cells were kept in 2% (TPC1), 5% (Nthy-ori-3-1), 20% (TT) or 10% (MZ-CRC-1) fetal calf serum. […] Cells were counted every 1–2 (fibroblasts) or 2–3 (human cell lines) days. Ba/F3 cells were kept in 10% fetal calf serum in 6-well dishes (200,000/well) and counted daily for 4 consecutive days, changing media every 2 days.
Differently from Ba/F3 NCOA4-RET, parental Ba/F3 were grown in the presence of IL3. Data are the mean ± SD of two experiments performed in triplicate.

KinomeScan kinase panel [1] = biological target: T1, KinomeScan kinase panel (Homo sapiens, UniProt Q00532); assay: KinomeScan kinase panel, single concentration 10 µM; assay type: binding; conditions: CDKL1, 10 µM; read-out: score (%)
T1 construct: purchased DiscoveRx (KinomeScan)
T1 sequence (Q00532 whole entry): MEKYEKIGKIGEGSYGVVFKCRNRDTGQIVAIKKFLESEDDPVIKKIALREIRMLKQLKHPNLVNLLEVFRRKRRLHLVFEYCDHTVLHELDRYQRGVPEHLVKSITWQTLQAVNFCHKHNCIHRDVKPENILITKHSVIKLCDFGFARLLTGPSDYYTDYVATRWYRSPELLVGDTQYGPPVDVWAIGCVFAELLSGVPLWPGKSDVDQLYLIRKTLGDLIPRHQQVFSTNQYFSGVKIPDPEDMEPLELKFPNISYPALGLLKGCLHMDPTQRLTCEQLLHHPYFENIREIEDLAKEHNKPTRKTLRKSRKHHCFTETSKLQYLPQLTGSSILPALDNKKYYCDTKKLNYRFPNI

KinomeScan kinase panel [2] = biological target: T2, KinomeScan kinase panel (Homo sapiens, UniProt Q6XUX3); assay: as above; assay type: binding; conditions: kinase RIPK5; 10 µM; read-out: score (%)
T2 construct: purchased DiscoveRx (KinomeScan)
T2 sequence (Q6XUX3 whole entry): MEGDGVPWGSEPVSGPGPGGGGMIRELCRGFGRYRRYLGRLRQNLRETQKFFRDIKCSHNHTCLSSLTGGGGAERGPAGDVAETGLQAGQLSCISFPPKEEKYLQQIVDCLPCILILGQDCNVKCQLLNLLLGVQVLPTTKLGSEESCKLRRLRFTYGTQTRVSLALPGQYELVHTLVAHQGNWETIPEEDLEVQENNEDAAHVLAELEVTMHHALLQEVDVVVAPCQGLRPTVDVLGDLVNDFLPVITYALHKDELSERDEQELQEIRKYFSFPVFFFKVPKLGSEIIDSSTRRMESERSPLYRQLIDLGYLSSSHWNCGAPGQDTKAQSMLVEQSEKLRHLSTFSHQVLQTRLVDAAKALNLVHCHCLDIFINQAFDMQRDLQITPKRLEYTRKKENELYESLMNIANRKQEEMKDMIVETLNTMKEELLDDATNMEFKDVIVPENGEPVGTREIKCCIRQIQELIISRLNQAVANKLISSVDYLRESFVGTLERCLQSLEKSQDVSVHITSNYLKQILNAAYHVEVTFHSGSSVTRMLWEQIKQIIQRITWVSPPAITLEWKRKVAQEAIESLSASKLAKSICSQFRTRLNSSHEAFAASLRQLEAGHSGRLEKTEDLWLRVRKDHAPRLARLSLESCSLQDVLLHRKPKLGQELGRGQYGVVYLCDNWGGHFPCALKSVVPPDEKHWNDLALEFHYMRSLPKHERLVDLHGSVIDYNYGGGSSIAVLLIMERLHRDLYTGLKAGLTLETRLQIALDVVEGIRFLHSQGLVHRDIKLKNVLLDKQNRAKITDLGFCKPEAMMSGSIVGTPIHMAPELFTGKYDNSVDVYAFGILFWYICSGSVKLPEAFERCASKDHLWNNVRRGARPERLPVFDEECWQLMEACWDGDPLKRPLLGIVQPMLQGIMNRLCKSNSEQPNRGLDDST

KinomeScan kinase panel [3] = biological target: T3, KinomeScan kinase panel (Homo sapiens, UniProt Q8WU08); assay: as above; assay type: binding; conditions: kinase YANK1; 10 µM; read-out: score (%)
T3 construct: purchased DiscoveRx (KinomeScan)

KinomeScan kinase panel [4] = biological target: T4, KinomeScan kinase panel (Plasmodium falciparum, UniProt P61075); assay: as above; assay type: binding; conditions: PFPK5(P.falciparum), 10 µM; read-out: score (%)
T4 construct: purchased DiscoveRx (KinomeScan)
T4 sequence (P61075 whole entry): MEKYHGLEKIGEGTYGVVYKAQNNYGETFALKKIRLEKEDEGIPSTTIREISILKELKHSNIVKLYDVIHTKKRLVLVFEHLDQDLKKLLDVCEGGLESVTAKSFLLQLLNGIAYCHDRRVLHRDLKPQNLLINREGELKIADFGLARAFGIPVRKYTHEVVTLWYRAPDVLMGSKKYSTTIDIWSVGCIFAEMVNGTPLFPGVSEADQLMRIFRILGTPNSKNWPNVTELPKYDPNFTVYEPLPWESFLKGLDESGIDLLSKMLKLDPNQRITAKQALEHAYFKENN

KinomeScan kinase panel [5] = biological target: T5, KinomeScan kinase panel (Homo sapiens, UniProt O14733); assay: as above; assay type: binding; conditions: MKK7, 10 µM
T5 construct: purchased DiscoveRx (KinomeScan)
T5 sequence (O14733 whole entry): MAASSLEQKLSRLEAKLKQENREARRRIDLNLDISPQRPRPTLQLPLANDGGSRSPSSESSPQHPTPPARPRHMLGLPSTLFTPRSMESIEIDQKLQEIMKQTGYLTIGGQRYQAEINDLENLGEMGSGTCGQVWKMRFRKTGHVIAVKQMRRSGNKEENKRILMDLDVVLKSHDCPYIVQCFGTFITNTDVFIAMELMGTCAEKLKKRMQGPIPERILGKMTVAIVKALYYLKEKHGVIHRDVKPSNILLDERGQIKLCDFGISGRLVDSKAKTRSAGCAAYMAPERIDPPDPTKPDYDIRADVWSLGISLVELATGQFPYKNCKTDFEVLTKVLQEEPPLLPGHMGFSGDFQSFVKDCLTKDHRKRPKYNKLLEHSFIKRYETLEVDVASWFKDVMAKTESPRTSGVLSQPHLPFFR

KinomeScan kinase panel [6] = biological target: T6, KinomeScan kinase panel (Homo sapiens, UniProt Q13163); assay: as above; assay type: binding; conditions: MEK5, 10 µM; read-out: score (%)
T6 construct: purchased DiscoveRx (KinomeScan)

KinomeScan kinase panel [7] = biological target: T7, KinomeScan kinase panel (Homo sapiens, UniProt P36888, R834Q); assay: as above; assay type: binding; conditions: FLT3(R834Q), 10 µM; read-out: score (%)
T7 construct: purchased DiscoveRx (KinomeScan)

KinomeScan kinase panel [8] = biological target: T8, KinomeScan kinase panel (Homo sapiens, UniProt Q9BQI3); assay: as above; assay type: binding; conditions: EIF2AK1, 10 µM; read-out: score (%)
T8 construct: purchased DiscoveRx (KinomeScan)
T8 sequence (Q9BQI3 whole entry): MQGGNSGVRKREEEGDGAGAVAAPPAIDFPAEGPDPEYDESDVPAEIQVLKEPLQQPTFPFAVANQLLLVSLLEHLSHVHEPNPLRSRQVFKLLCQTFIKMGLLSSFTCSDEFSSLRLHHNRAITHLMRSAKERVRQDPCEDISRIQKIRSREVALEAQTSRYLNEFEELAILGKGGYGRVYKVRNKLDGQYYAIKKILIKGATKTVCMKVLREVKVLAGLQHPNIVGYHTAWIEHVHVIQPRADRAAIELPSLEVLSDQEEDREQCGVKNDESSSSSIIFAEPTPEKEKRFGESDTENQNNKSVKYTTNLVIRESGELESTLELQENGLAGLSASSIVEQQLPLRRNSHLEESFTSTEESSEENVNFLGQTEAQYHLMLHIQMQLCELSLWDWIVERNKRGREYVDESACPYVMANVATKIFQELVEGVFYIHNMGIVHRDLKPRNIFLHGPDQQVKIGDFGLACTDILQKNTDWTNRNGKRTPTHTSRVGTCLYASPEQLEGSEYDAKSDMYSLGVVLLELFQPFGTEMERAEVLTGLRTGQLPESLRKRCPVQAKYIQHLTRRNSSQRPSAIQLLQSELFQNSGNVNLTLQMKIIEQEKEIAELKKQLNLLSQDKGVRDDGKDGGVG

KinomeScan kinase panel [9] = biological target: T9, KinomeScan kinase panel (Homo sapiens, UniProt P48729); assay: as above; assay type: binding; conditions: CSNK1A1, 10 µM; read-out: score (%)
T9 construct: purchased DiscoveRx (KinomeScan)
T9 sequence (P48729 whole entry): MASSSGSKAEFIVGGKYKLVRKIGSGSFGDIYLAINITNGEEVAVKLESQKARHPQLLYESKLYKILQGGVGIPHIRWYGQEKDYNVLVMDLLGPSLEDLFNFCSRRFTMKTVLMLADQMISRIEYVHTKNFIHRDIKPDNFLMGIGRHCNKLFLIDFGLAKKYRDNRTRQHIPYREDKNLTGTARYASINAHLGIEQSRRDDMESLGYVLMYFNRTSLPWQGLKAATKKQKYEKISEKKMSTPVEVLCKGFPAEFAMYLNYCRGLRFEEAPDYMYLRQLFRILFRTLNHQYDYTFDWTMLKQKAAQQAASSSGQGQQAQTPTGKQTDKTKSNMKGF

KinomeScan kinase panel [10] = biological target: T10, KinomeScan kinase panel (Mycobacterium tuberculosis, UniProt P9WI81); assay: as above; assay type: binding; conditions: PKNB(M.tuberculosis), 10 µM; read-out: score (%)
T10 construct: purchased DiscoveRx (KinomeScan)
T10 sequence (P9WI81 whole entry): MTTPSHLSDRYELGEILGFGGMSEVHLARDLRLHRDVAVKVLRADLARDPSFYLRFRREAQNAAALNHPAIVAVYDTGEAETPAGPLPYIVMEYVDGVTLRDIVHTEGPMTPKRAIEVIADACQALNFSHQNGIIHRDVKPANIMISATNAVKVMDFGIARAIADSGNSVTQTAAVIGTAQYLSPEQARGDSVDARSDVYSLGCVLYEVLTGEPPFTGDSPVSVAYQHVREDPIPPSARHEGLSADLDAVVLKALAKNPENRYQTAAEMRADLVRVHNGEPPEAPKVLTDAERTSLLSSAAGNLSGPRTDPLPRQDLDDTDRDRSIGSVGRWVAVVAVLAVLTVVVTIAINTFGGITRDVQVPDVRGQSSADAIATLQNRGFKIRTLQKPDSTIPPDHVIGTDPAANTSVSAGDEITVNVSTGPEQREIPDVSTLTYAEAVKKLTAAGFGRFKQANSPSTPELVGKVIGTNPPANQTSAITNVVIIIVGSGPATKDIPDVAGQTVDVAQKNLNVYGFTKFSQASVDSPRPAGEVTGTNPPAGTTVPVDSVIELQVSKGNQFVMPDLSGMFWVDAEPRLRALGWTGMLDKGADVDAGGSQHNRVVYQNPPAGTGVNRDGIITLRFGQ

KinomeScan kinase panel [11] = biological target: T11, KinomeScan kinase panel (Homo sapiens, UniProt P00533, T790M); assay: as above; assay type: binding; conditions: EGFR(T790M), 10 µM
T11 construct: purchased DiscoveRx (KinomeScan)
T11 sequence (P00533 25-1210 T790M): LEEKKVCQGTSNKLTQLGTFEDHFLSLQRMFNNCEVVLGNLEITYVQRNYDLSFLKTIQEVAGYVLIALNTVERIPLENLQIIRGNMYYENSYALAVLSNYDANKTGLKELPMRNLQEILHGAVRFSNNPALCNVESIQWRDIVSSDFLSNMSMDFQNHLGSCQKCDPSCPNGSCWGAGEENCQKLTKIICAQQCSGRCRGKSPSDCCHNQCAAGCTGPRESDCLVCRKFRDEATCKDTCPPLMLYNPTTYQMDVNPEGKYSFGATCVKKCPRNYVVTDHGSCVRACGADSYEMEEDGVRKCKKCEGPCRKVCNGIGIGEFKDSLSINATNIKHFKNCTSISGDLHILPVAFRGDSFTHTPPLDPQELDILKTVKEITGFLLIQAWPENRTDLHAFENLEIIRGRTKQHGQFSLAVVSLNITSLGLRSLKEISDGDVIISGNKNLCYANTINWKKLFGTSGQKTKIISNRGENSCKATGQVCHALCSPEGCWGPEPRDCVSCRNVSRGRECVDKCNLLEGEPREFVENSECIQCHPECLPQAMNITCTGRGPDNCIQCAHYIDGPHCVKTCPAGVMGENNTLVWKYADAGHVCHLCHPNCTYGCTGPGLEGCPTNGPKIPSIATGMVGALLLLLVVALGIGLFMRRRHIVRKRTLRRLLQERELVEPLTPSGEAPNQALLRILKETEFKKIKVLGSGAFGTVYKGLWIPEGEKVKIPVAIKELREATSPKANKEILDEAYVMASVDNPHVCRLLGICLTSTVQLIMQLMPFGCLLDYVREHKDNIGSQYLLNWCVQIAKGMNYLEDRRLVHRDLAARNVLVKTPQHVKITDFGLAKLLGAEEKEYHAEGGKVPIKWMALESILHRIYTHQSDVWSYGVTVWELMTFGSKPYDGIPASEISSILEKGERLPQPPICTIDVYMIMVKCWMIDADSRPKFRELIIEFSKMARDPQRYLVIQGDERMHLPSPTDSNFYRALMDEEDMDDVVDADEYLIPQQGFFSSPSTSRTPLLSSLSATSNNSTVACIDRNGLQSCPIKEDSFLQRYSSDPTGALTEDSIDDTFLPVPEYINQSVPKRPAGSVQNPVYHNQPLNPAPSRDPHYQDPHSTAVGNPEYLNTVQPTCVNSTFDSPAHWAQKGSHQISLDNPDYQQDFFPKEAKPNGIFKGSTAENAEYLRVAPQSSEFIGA

KinomeScan kinase panel [12] = biological target: T12, KinomeScan kinase panel (Homo sapiens, UniProt Q9BX84); assay: as above; assay type: binding; conditions: kinase TRPM6; 10 µM; read-out: score (%)
T12 construct: purchased DiscoveRx (KinomeScan)

KinomeScan kinase panel [13] = biological target: T13, KinomeScan kinase panel (Homo sapiens, UniProt P42336, I800L); assay: as above; assay type: binding; conditions: PIK3CA(I800L), 10 µM; read-out: score (%)
T13 construct: purchased DiscoveRx (KinomeScan)

Compound | effect on RET/PTC3-driven proliferation (Ba/F3-RET/PTC3 cells) | remaining binding at 10 µM (KinomeScan kinase panel [1]) [%] | remaining binding at 10 µM (KinomeScan kinase panel [2]) [%] | remaining binding at 10 µM (KinomeScan kinase panel [3]) [%] | remaining binding at 10 µM (KinomeScan kinase panel [4]) [%] | score (%) (KinomeScan kinase panel [5]) | remaining binding at 10 µM (KinomeScan kinase panel [6]) [%] | remaining binding at 10 µM (KinomeScan kinase panel [7]) [%] | remaining binding at 10 µM (KinomeScan kinase panel [8]) [%] | remaining binding at 10 µM (KinomeScan kinase panel [9]) [%] | remaining binding at 10 µM (KinomeScan kinase panel [10]) [%] | score (%) (KinomeScan kinase panel [11]) | remaining binding at 10 µM (KinomeScan kinase panel [12]) [%] | remaining binding at 10 µM (KinomeScan kinase panel [13]) [%]
CCN1CCN(Cc2ccc(NC(=O)c3ccc(C)c(NC(=O)c4cncc(-c5cccs5)c4)c3)cc2C(F)(F)F)CC1 [ALW-II-41-27] | blunted | – | – | – | – | – | – | – | – | – | – | – | – | –
CCN1CCN(Cc2ccc(NC(=O)c3ccc(C)c(C#Cc4cccnc4)c3)cc2C(F)(F)F)CC1 [XMD15-44] | – | > 30 | 27 | 81 | 89 | 11 | 0.4 | 4.2 | > 30 | > 30 | 87 | nb (Hits values higher than 30% were considered negative (no binding: nb)) | 49 | 72
